We go through 27 molecules from PubChem BioAssay (NCI).

Where “and” joins values, the source holds several entries; their conditions need not be identical. Equal values may be shown once.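 All cell lines were grown in 96-well plates and treated with compound for 48 hours. Here, GI50 denotes the concentration required for 50% inhibition of growth. TGI denotes the concentration required for complete inhibition of growth.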

Test in all cases: inhibition of tumour cell growth, NCI panel, 48 h
Experiment [1] deals with 786-0 renal.
Experiment [2] relates to UACC-62 melanoma.
For experiment [3], the system named is NCI-H522 lung.
The test system of experiment [4] is OVCAR-5 ovarian.
In experiment [5] the test system is U251 CNS.
Experiment [6] deals with HT29 colon.
In experiment [7] the test system is SK-MEL-2 melanoma.
Experiment [8] has as its system MALME-3M melanoma.
Experiment [9] has as its system ACHN renal.
Experiment [10] relates to CAKI-1 renal.

As for `CSCCCN(CCCSC)CCCSC`, the TGI in experiment [1], in experiment [2], in [3], in experiment [4], in experiment [5] and in [6] was more than 100 µM each time.
`CC(=O)[O][Hg][c]1c(N)c(C)cc(C)c1F`: the GI50 in experiment [7] was 1.56 µM; in experiment [1] it was 1.79 µM; in [2], 1.5 µM; in experiment [3] it was 0.167 µM; in experiment [8], 1.63 µM; in [4], 1.95 µM. In addition, the GI50 in [5] was 0.672 µM; in experiment [9], 1.61 µM; in [10], 3.4 µM. The TGI in experiment [7] amounted to 3.23 µM; in experiment [1], 3.32 µM; in experiment [2] it was 3.2 µM; in experiment [3] it was 0.344 µM; in [8] it was 3.25 µM; in [4], 3.67 µM. Moreover, the results for the TGI in experiment [5], in [9] and in experiment [10] were 2.06 µM, 3.08 µM and 12.4 µM, respectively.
Consider `CSc1ccc(/C=C2\CN(C)C/C(=C\c3ccc(SC)cc3)C2=O)cc1`, for which the TGI in experiment [7] is more than 100 µM; in [1], more than 100 µM; in [2], more than 100 µM; in experiment [8], more than 100 µM; in experiment [4], more than 100 µM; in experiment [5], 33.1 µM. Besides, the TGI in [9] was more than 100 µM; in experiment [6] it was 67 µM; in [10], more than 100 µM.
Take `CC(=O)NC1=C(NCC(C)(C)C)C(=O)c2ccccc2C1=O`: the TGI is more than 100 µM in experiment [7]; more than 100 µM in experiment [1]; more than 100 µM in [2]; 49.7 µM in [3]; more than 100 µM in experiment [8]; more than 100 µM in experiment [5]. Further, the TGI was 74.5 µM in experiment [9] and more than 100 µM in experiment [6].
Consider `CNC(=O)c1cc(Oc2ccc3nc(NC(=O)Nc4ccc(Cl)c(C(F)(F)F)c4)sc3c2)ccn1`, for which the GI50 is 5.69 µM in [7]; 1.79 µM in experiment [1]; 2.54 µM in experiment [3]; 2.46 µM in experiment [4]; 1.85 µM in experiment [9]. For the same molecule, the TGI in experiment [7] is 47 µM; in experiment [1] it was 3.4 µM; in experiment [3] it was more than 100 µM; in experiment [4], 7.55 µM; in experiment [9], 3.8 µM.
Regarding `C/C(CCn1[nH]c(=O)ccc1=O)=N\O`, the TGI in experiment [7], in experiment [1], in [2], in experiment [8], in experiment [4] and in experiment [9] was more than 100 µM in each case. The TGI in experiment [6] and in experiment [10] was more than 100 µM in each case.
For `O=C(O)CCSC(=O)Nc1cccc(F)c1`, the TGI in experiment [7], in [1], in experiment [4], in experiment [5], in experiment [9] and in experiment [6] was more than 100 µM throughout.
For the molecule `COc1ccc(C2=CSc3cc(Cl)c(C)cc3S(=O)(=O)N2C(C)=O)cc1`, the GI50 in [7] was 63.4 µM; in [1] it was 39.1 µM; in experiment [2], 13.1 µM; in experiment [3], 53.9 µM; in [4], 52.7 µM; in [5], 21.2 µM. For the same molecule, the GI50 in experiment [9] is 18.8 µM; in experiment [10] it was 11.5 µM. The TGI in experiment [7] was more than 100 µM; in experiment [1], more than 100 µM; in experiment [2], 48 µM; in experiment [3], more than 100 µM; in experiment [4], more than 100 µM; in [5], 55.8 µM. The values for the TGI in [9] and in experiment [10] were 43.7 µM and 32.9 µM, respectively.
As for `Cc1cnc(NC(=O)C(Cc2ccccc2)NC(=O)c2ccccc2)s1` (configuration not stated), the GI50 in experiment [1] was 15.1 µM; in experiment [2] it was 1.45 µM; in experiment [3] it was 1.53 µM; in experiment [8], 24.2 µM; in experiment [4], 25.3 µM; in experiment [5], 5.25 µM. The GI50 in experiment [9] was 3.49 µM; in experiment [6], 26 µM; in [10], 33 µM. Further, the TGI in experiment [1] was 76.2 µM; in experiment [2] it was 3.7 µM; in experiment [3], 21.8 µM; in [8] it was more than 100 µM; in experiment [4] it was 63.7 µM; in [5], 19.3 µM. Besides, the TGI in experiment [9] is 16.9 µM; in experiment [6], more than 100 µM; in experiment [10] it was more than 100 µM.
On to `COC(=O)[C@@]12C3=NO[C@]1(C(=O)OC)C(O[Si](C)(C)C(C)(C)C)[C@H]1OC(C)(C)O[C@H]1[C@@H]2C(OCc1ccccc1)CC3` (some centres not stated), for which the TGI in experiment [7] is more than 100 µM; in experiment [1], more than 100 µM; in experiment [2], more than 100 µM; in experiment [5] it was more than 100 µM; in experiment [9], 28 µM; in experiment [6], more than 100 µM.
Take `O=C1NC2(CCCCC2)C2CCCCC(O)C12` (configuration not stated): the TGI in [7], in [1], in experiment [2], in experiment [8], in experiment [4] and in [5] was more than 100 µM each time. In addition, the TGI in [9], in experiment [6] and in experiment [10] was more than 100 µM throughout.
In the case of `COc1ccc2c(c1)C1(C=N2)CCN(C(C)=O)CC1`, the TGI in experiment [7], in [1], in experiment [2], in experiment [8], in experiment [4] and in experiment [5] was more than 100 µM throughout. Further, the TGI in experiment [9], in experiment [6] and in [10] was more than 100 µM each time.
For `CNC(=O)c1ccccc1Nc1nc(Nc2ccc(N3CCOCC3)cc2OC)ncc1Cl`, the GI50 is 0.274 µM in experiment [7]; 1.03 µM in experiment [1]; 0.239 µM in experiment [2]; 0.764 µM in [3]; 0.405 µM in experiment [8]; 1.94 µM in experiment [5]. In addition, the GI50 in [6] is 0.0714 µM; in experiment [10] it was 0.165 µM. The TGI in experiment [7] was 2.5 µM; in experiment [1] it was more than 35.1 µM; in [2] it was 2.73 µM; in experiment [3], 9.66 µM; in experiment [8], 16.9 µM; in [5], more than 47.8 µM. For the same molecule, the TGI stood at 4.73 µM in experiment [6] and 1.58 µM in [10].
For `COc1ccccc1NC(=O)CC(=O)n1nc(C)c(N=Nc2ccccc2C(=O)O)c1C`, the TGI in [7], in experiment [1], in experiment [2], in experiment [3], in experiment [8] and in experiment [4] was more than 100 µM each time. In addition, the TGI in experiment [5], in experiment [6] and in experiment [10] was more than 100 µM in each case.
On to `COC(=O)[C@@H](C)C[C@H](Cc1ccc(F)cc1)NC(=O)c1csc([C@@H](C[C@H](C(C)C)N(C)C(=O)[C@@H](NC(=O)[C@H]2CCCCN2C)C(C)C)OC(C)=O)n1`, for which the GI50 was 0.000792 µM and 0.00503 µM in [7]; 0.00319 µM and 0.0147 µM in experiment [1]; 0.0002 µM in [3]; 4.51 µM in [8]; 0.00151 µM and 0.00914 µM in experiment [5]; 0.134 µM in experiment [9]. For the same molecule, the TGI is more than 16.7 µM in [7]; more than 16.7 µM in [1]; more than 16.7 µM in [2]; 0.00082 µM in experiment [3]; more than 16.7 µM in [8]; more than 16.7 µM in [4]. For the same molecule, the TGI in experiment [5], in [9] and in experiment [6] was more than 16.7 µM in each case.
On to `O=c1cc(-c2cccc(O)c2)[nH]c2cc3c(cc12)OCO3`, for which the TGI in [1] is more than 69.9 µM; in [2], 8.67 µM; in experiment [3], 0.951 µM; in experiment [8], more than 100 µM; in [4] it was more than 100 µM; in experiment [5] it was more than 36.5 µM. Besides, the TGI in experiment [9] and in experiment [6] was more than 100 µM each time.
Take `O=[S@@]1Nc2ccc(Br)cc2S1`: the TGI is more than 100 µM in [7]; more than 100 µM in experiment [1]; more than 100 µM in experiment [2]; 68.6 µM in experiment [3]; more than 100 µM in experiment [8]; more than 100 µM in experiment [5]. The TGI in experiment [9], in experiment [6] and in [10] was more than 100 µM each time.
For the molecule `Cc1cc2nc(C(Cl)Cl)nc(-c3ccc(Cl)cc3)n2n1`, the GI50 was 4.93 µM in experiment [1]; 1.56 µM in experiment [3]; 1.48 µM in [8]; 1.85 µM in experiment [4]; 0.509 µM in [5]; 0.386 µM in experiment [9]. The GI50 in [6] was 0.36 µM; in experiment [10], 0.798 µM. The TGI in experiment [1] is more than 100 µM; in experiment [3], 5.23 µM; in experiment [8] it was 2.99 µM; in experiment [4], 5.56 µM; in [5], 3.7 µM; in experiment [9], 2.24 µM. Also, the TGI in experiment [6] turned out to be 3.99 µM; in [10] it was 4.11 µM.
Turning to `C=CCc1cc(OC)c2c(c1)C(O)CC(c1ccc(OC)c(OC)c1)O2` (configuration not stated), the TGI in experiment [7], in [1], in experiment [2], in [3], in experiment [4] and in [5] was more than 100 µM in each case. The TGI in experiment [9], in experiment [6] and in experiment [10] was more than 100 µM throughout.
`COc1ccc2nc3cc(Cl)ccc3c(Sc3ccccc3[N+](=O)[O-])c2c1`: the TGI in experiment [7], in [1], in experiment [2], in [3], in experiment [8] and in [4] was more than 100 µM throughout. Moreover, the TGI in experiment [5], in [9] and in experiment [10] was more than 100 µM each time.
In the case of `N#CC(C#N)=c1ccc(=C2NCC3CCCN23)cc1` (configuration not stated), the TGI in [7], in experiment [1], in [2], in experiment [3], in experiment [8] and in experiment [4] was more than 100 µM in each case. Besides, the TGI in [5], in experiment [6] and in experiment [10] was more than 100 µM throughout.
Regarding `COc1cccc(NC(=O)CC(=O)n2nc(C)c(N=Nc3ccccc3)c2C)c1`, the TGI in [1], in [2], in [3], in [8], in [5] and in experiment [9] was more than 100 µM each time. Besides, the TGI in experiment [6] and in experiment [10] was more than 100 µM in each case.
`CC(=O)N1[C@H](C(=O)O)CS[C@H]1c1ccncc1`: the TGI in [1], in experiment [2], in [8], in experiment [4], in experiment [9] and in experiment [6] was more than 100 µM in each case. Moreover, the TGI in experiment [10] was more than 100 µM.
`COc1ccc(-c2cc(=O)c3ccc(O)cc3o2)c(OC)c1OC`: the TGI in [7] was more than 100 µM; in experiment [1] it was more than 100 µM; in experiment [2], more than 100 µM; in experiment [3], 82.8 µM; in experiment [8], more than 100 µM; in [9], more than 100 µM. Moreover, the TGI in experiment [6] and in [10] was more than 100 µM each time.
For the molecule `O=C(CSC(=S)N1CCCCC1)Nc1nc2c(s1)CCCC2`, the TGI was more than 100 µM in experiment [7]; more than 100 µM in experiment [1]; 65.7 µM in experiment [3]; more than 100 µM in experiment [8]; more than 100 µM in experiment [4]; more than 100 µM in experiment [5]. The TGI in [9] and in experiment [6] was more than 100 µM throughout.
In the case of `c1cc2c(cc1NC1=NCCO1)CCC2`, the TGI in experiment [7], in experiment [1], in experiment [2], in experiment [8] and in [6] was more than 10 µM throughout.
In the case of `CCOC(=O)C1=C(C)CC2C(=O)OC(=O)C2C1(C)C` (configuration not stated), the TGI in experiment [7], in [1], in [3], in experiment [8], in experiment [4] and in experiment [5] was more than 100 µM each time. Moreover, the TGI in experiment [9] and in experiment [6] was more than 100 µM each time.
